# Test results from ChEMBL document CHEMBL1201862, “PubChem BioAssay data set” (2004).
# Activity calls are given as the source filed them.
# What was measured:
# [1] = reduction of Shn3 3'UTR-driven luciferase in osteoblasts – cell-based, Clone20 osteoblasts, firefly luciferase, cherry-picked, dose response (AID 624132); type: functional;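 also: firefly luciferase luminescence from reporter carrying the Shn3 3'UTR in osteoblasts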
# [2] = loss of viability in HepG2 cells – cell-based, CellTiter-Glo, cherry-picked, cytotoxicity control for Shn3 inhibitor project, dose response (AID 624134); type: functional
# [3] = non-specific 3'UTR reporter inhibition in Clone20-Shn3RL – cell-based, Renilla luciferase, cherry-picked, counter-screen for Shn3 inhibitor project, dose response (AID 624133); type: functional
# [4] = NIH-3T3 fibroblast cytotoxicity, dose response, cytotoxicity control, cell-based, fluorescence, Alamar Blue, secondary assay (AID 2327); type: functional;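 also: NIH-3T3 mouse fibroblasts cultured with fluconazole at 8 µg/mL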
# [5] = fluconazole-exposed Candida albicans growth modulators – fluorescence, retest, confirmation (AID 2467); type: functional, cell-based
# [6] = Luminescence Cell-Based Dose Retest to Confirm Inhibitors of Cancer Stem Cells. [Related pubchem assays (depositor defined):AID2717, AID2721]; type: functional; conditions: Homo sapiens
# INS1 = assay: INS-1E survival protection against cytokine death – cell-based, luminescence, retest, dose response (AID 449756); type: functional; conditions: Rattus norvegicus;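 also: cell death triggered by IL-1 beta plus TNF-alpha plus IFN-gamma mixture; protective hits raise ATP signal compared with cytokine alone wells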
# Paired box protein Pax-8 = Paired box protein Pax-8 (Homo sapiens, UniProt Q06710); assay: PAX8 transcriptional activity inhibition in RMG-I – RMG-I cells, luciferase, cherry-pick, dose response (AID 687027); type: functional, cell-based;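 also: luciferase reporter driven by Pax8 target thyroperoxidase promoter measured by SteadyGlo luminescence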
# [7] = target: T1, Corticotropin-releasing factor receptor 2/Corticotropin-releasing factor-binding protein (Homo sapiens, UniProt P24387+Q13324); assay: Dose Response confirmation of uHTS hits for small molecule antagonists of the CRF-binding protein and CRF-R2 receptor complex.; type: functional; conditions: read-out: IC50_Mean
# T1 sequence (Q13324 whole entry): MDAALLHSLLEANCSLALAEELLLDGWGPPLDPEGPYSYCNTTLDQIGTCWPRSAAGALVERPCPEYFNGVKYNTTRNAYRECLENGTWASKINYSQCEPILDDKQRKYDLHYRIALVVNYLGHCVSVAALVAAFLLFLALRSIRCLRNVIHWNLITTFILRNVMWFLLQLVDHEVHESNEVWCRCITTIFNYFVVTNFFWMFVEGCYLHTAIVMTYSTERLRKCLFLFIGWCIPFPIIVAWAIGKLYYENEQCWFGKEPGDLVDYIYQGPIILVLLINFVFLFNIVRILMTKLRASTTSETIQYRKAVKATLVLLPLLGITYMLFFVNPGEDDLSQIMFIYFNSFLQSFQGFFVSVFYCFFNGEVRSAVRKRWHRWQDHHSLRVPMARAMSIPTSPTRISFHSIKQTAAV
# T1 sequence (P24387 whole entry): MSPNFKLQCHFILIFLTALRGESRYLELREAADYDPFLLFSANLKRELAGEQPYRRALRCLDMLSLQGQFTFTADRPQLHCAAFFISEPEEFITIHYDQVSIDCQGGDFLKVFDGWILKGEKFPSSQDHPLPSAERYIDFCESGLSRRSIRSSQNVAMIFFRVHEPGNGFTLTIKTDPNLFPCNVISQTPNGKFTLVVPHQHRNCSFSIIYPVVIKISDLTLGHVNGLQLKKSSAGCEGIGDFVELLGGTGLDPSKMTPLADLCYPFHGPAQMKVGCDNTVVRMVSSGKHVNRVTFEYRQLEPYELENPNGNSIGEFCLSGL
# [8] = target: T1, Corticotropin-releasing factor receptor 2/Corticotropin-releasing factor-binding protein; assay: activators of CRF receptor 2 with binding protein – uHTS hits, confirmation (AID 602473); type: functional; conditions: read-out: EC50_Mean
# Cytochrome P450 2D6 = Cytochrome P450 2D6 (Homo sapiens, UniProt P10635);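 also: CYP2D6 member of a cytochrome P450 panel assay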
# [9] = target: T2, Rac GTPase-activating protein 1 (Homo sapiens, UniProt Q9H0H5); assay: blockers of MgcRacGAP-driven Rac1 GTP hydrolysis – biochemical, ADP Hunter fluorescence, primary and confirmatory, confirmation (AID 624330); type: functional
# T2 sequence (Q9H0H5 whole entry): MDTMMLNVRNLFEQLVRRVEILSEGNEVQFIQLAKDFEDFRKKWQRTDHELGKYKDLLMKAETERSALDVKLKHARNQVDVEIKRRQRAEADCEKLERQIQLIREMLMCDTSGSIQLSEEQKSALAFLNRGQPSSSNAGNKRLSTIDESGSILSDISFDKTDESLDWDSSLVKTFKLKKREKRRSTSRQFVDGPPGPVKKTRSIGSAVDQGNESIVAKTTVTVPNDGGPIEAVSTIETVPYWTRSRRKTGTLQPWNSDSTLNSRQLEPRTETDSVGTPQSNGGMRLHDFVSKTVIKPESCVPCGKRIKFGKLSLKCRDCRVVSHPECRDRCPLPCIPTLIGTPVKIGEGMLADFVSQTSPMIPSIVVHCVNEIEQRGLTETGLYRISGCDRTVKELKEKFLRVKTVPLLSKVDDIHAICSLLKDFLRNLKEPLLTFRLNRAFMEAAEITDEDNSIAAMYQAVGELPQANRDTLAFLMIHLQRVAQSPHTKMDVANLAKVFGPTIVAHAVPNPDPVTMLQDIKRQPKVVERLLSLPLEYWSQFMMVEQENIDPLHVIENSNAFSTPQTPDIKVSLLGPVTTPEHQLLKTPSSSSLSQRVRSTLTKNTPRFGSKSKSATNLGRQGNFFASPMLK
# [10] = viability of PTEN-deleted HCT116 cells – cell-based, HCT116 PTEN knockout, dose response (AID 1047); type: functional;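 also: HCT116 colon tumor cells with PTEN knocked out; cells exposed to compound for 60 hours before readout; potency for loss of cell viability measured by luminescence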
# [11] = viability of HCT116 lacking mutant beta-catenin – cell-based, human colon tumor, dose response (AID 1045); type: functional;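 also: HCT116 colon tumor cells with beta catenin knocked out; cells exposed to compound for 60 hours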
# [12] = Trypanosoma cruzi growth suppression in host cells – NIH3T3 host cells, beta-gal luminescence, confirmation (AID 2044); type: functional, cell-based;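 also: intracellular parasites grown in NIH/3T3 mouse fibroblasts as host cells; luminescent beta-galactosidase reporter signal from transgenic T. cruzi replicating inside host cells; inhibitors lower the luminescence signal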
# [13] = NIH3T3 cell viability loss – ATP luminescence, mouse fibroblasts, counter-screen, dose response (AID 2010); type: functional, cell-based;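 also: cells exposed to compound for about 90 hours before reading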
# [14] = luciferase reporter signal suppression in cells – H4 neuroglioma cells, luminescence, dose response (AID 1990); type: functional, cell-based
# [15] = Luminescence Cell-Based Dose Response HTS to Identify Inhibitors of 5'UTR Stem-Loop Driven Prion Protein mRNA Translation in H4 Neuroglioblastoma Cells. [Related pubchem assays: 1827 (Project Summary), 1813 (Primary HTS)]; type: functional
# [16] = alpha-synuclein stem-loop luciferase translation blockers – H4 neuroglioma cells, luminescence, confirmation (AID 1988); type: functional, cell-based
# [17] = tested on: Streptococcus sp. 'group A'; assay: Streptococcus pyogenes SK(-)GAS viability under kanamycin – luminescence, BacTiterGlo, confirmation, counter-screen for streptokinase expression inhibitor project, dose response (AID 1900); type: functional, organism-based
# Streptococcus = assay: GAS UMAA2166 growth inhibition – luminescence, BacTiterGlo, counter-screen for streptokinase expression inhibitor project, dose response (AID 1915); type: functional, organism-based;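 also: potency for reduction of bacterial viability or growth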
# Sequence of Paired box protein Pax-8 (Q06710 whole entry): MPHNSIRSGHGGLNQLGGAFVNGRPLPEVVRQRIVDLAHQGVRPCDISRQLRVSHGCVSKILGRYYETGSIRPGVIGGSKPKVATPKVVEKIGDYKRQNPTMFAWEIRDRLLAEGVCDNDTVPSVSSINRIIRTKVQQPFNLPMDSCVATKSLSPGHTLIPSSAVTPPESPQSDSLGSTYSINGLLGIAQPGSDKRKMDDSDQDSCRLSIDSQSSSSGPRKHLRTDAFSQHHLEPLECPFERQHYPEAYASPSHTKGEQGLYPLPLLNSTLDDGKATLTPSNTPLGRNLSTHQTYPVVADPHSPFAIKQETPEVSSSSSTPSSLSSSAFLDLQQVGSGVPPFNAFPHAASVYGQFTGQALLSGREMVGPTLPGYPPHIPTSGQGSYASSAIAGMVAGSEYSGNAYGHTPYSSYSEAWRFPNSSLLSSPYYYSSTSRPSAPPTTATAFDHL
# Sequence of Cytochrome P450 2D6 (P10635 whole entry): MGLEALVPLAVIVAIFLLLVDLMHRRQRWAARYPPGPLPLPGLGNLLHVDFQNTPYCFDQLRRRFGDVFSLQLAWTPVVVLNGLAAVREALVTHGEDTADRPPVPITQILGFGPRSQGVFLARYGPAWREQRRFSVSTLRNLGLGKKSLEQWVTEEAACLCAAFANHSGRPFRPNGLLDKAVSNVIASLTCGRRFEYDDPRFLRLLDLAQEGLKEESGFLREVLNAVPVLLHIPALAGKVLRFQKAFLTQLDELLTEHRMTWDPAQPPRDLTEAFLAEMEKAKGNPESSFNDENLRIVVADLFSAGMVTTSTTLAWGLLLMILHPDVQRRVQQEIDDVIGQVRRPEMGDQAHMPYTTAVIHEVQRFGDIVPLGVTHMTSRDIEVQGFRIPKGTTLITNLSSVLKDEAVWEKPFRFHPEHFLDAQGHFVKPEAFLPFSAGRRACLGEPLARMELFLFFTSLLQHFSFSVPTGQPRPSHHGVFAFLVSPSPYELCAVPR
smiles,measurement,setting,value
Cc1onc(-c2ccccc2Cl)c1C(=O)N1CCC(Cc2ccccc2)CC1,AC50,[1],2.29 µM (active)
same,AC50,[2],46.3 µM (active)
same,AC50,[3],4.54 µM (active)
O=C(O)c1ccc(Nc2cnc3ccccc3n2)cc1,EC50,[4],> 160 µM (inactive)
same,EC50,[5],> 38 µM (not active)
Cc1ccc(NS(=O)(=O)c2cc([N+](=O)[O-])ccc2NN=C(S)Nc2cc(C)ccc2C)c(C)c1,AC50,[6],1.12 µM (active)
same,AC50,INS1,4.42 µM (active)
Cc1ccc(CCc2nnc(SCC(=O)Nc3cccc(Cl)c3)n2-c2ccccc2)o1,AC50,Paired box protein Pax-8,25.4 µM (active)
CC(/C=C/c1ccccc1)=N/NC(=O)CNC(=O)c1ccc2c(c1)OCO2,IC50,[7],> 47.1 µM (inactive)
same,EC50,[8],> 53 µM (inactive)
same,AC50,Cytochrome P450 2D6,0.0501 µM (inconclusive)
CCCNc1nc2c(c(=O)n(C)c(=O)n2C)n1Cc1cccc(C)c1,AC50,[1],1.91 µM (active)
same,AC50,[2],> 70 µM (inactive)
same,AC50,[3],8.85 µM (active)
c1ccc(CC2CCN(Cc3ccccn3)CC2)cc1,IC50,[9],216 µM (active)
CCCCCCSc1ccc(-c2nc3ccccn3c2NCCCC)cc1,AC50,[6],4.4 µM (active)
CSc1nc(N)nc2c1ncn2CC(=O)N1CCN(Cc2c(C)cc(C)cc2C)CC1,AC50,INS1,1.98 µM (active)
same,AC50,[1],0.526 µM (active)
same,AC50,[2],33.6 µM (active)
same,AC50,[3],2.02 µM (active)
O=C(Nc1ccc(F)cc1)c1nc[nH]c1C(=O)Nc1ccc([N+](=O)[O-])cc1,EC50,[10],17.6 µM (active)
same,EC50,[11],11.2 µM (active)
CCCC(=O)NC(=S)NNC(=O)c1ccc([N+](=O)[O-])cc1,EC50,[4],> 160 µM (inactive)
same,EC50,[5],10.1 µM (active)
O=C1Nc2ccccc2C1=Nc1ccc2[nH]c3ccccc3c2c1,IC50,[9],16.6 µM (active)
C[C@@H]1CN([C@H](C)CO)S(=O)(=O)c2ccc(C#Cc3ccncc3)cc2O[C@H]1CN(C)C(=O)Nc1ccc2c(c1)OCO2,AC50,Paired box protein Pax-8,3.68 µM (active)
COc1ccc(C(=O)N/N=C(\Cc2ncc[nH]2)c2ccccc2)cc1,EC50,[4],7.31 µM (active)
same,EC50,[5],> 38 µM (not active)
same,EC50,[12],1.46 µM (active)
same,EC50,[13],7.77 µM (active)
Cc1csc(=O)n1CC(=O)OC(C)C(=O)Nc1ccc(N(C)C)cc1 (stereo not given),IC50,[9],51.4 µM (active)
CCN(CC)S(=O)(=O)c1cccc(NC(=O)CNc2cccc(S(=O)(=O)N3CCOCC3)c2)c1,AC50,[1],0.865 µM (active)
same,AC50,[2],1.08 µM (active)
same,AC50,[3],2.77 µM (active)
CCOC(=O)C1=C(CSc2nc3ccccc3s2)NC(=O)NC1c1ccc(OC)cc1 (stereo not given),AC50,[6],5.99 µM (active)
c1ccc(-n2nnnc2Oc2cccc3cccnc23)cc1,EC50,[10],22.6 µM (active)
same,EC50,[11],20.8 µM (active)
O=C(CNCc1cccs1)Nc1ccc(N2CCCCCC2)cc1,IC50,[9],107 µM (active)
C=CCn1c(SCC(=O)c2[nH]c(C)c(C(=O)OC)c2C)nc2scc(-c3ccc(OC)c(OC)c3)c2c1=O,EC50,[14],6.33 µM (active)
same,EC50,[15],8.16 µM (active)
same,EC50,[16],5.89 µM (active)
same,AC50,[1],2.01 µM (active)
same,AC50,[2],41.2 µM (active)
same,AC50,[3],24.8 µM (active)
COc1cccc(NP(=O)(Oc2ccccc2)Oc2ccccc2)c1,EC50,[14],> 120 µM (not active)
same,EC50,[15],59.4 µM (active)
same,EC50,[16],> 120 µM (not active)
same,AC50,[6],0.935 µM (active)
Cc1ccc2[nH]c(SCC(=O)Nc3cc([N+](=O)[O-])ccc3F)nc2c1,EC50,[10],14 µM (active)
same,EC50,[11],20.6 µM (active)
C[C@@H]1CCCCO[C@H](CN(C)Cc2ccc(C(F)(F)F)cc2)[C@@H](C)CN([C@@H](C)CO)C(=O)c2cc(NS(=O)(=O)c3cccs3)ccc2O1,AC50,Paired box protein Pax-8,7.62 µM (active)
COc1ccc(OC)c(NC(=O)c2cc(-c3cc(Cl)ccc3O)[nH]n2)c1,EC50,[10],36.7 µM (active)
same,EC50,[11],39.2 µM (active)
CCc1ccc(OCC(=O)NC(N=C(S)Nc2ccc(C)cc2C)C(Cl)(Cl)Cl)cc1 (stereo not given),EC50,[17],3.3 µM (active)
same,EC50,[10],30.8 µM (active)
same,EC50,[11],41.1 µM (active)
same,EC50,Streptococcus,8.13 µM (active)
same,AC50,INS1,7.48 µM (active)
O=C(/C=C/c1ccco1)OCc1nnc(-c2ccc(Cl)cc2)o1,IC50,[7],> 47.1 µM (inactive)
same,EC50,[8],> 53 µM (inactive)
COc1cc(/C=C/C(=O)OCC(=O)Nc2c(C)n(C)n(-c3ccccc3)c2=O)ccc1O,IC50,[9],63.9 µM (active)
Cc1cc(C)c(S(=O)(=O)Nc2nnc(C3CCCCC3)s2)c(C)c1,EC50,[4],> 160 µM (inactive)
same,EC50,[5],1.93 µM (active)
Cc1ccccc1OCCn1cc(C(=S)N2CCCC2)c2ccccc21,AC50,[1],24.3 µM (active)
same,AC50,[2],> 70 µM (inactive)
same,AC50,[3],20.9 µM (active)
CCCOc1ccccc1C1CC(=O)Nc2cc3c(cc21)OCCO3 (stereo not given),AC50,[1],3.66 µM (active)
same,AC50,[3],10.2 µM (active)
O=C(c1ccc(COc2c(F)c(F)cc(F)c2F)o1)N1CCN(c2ccc(Cl)cc2)CC1,EC50,[10],21.5 µM (active)
same,EC50,[11],11.7 µM (active)
COc1cc(/C=C(/NC(=O)c2ccccc2)C(=O)Nc2ccc(O)cc2)c([N+](=O)[O-])cc1OC,IC50,[9],55.7 µM (active)
C=CCCc1ccc(C#N)c(SCc2c(C(=O)OCC)c3cc(OC(C)=O)c(Br)cc3n2C)n1,AC50,INS1,1.14 µM (active)
same,AC50,[2],9.37 µM (active)
same,AC50,[3],2.75 µM (active)
COC(=O)c1ccc2c(=O)n(Cc3ccco3)c(SCC(=O)Nc3ccccc3Cl)nc2c1,EC50,[10],37.5 µM (active)
same,EC50,[11],44.3 µM (active)
Clc1ccc(OCCn2ccnc2)c2ccccc12,EC50,[4],> 150 µM (inactive)
same,EC50,[5],3.78 µM (active)
same,EC50,[12],3.91 µM (active)
same,EC50,[13],> 60 µM (not active)
COc1cc(OC)cc(C(=O)N2CCN(Cc3ccccc3Br)CC2)c1,IC50,[9],325 µM (active)
O=C(NNc1ccccc1)C(CCO)C(=O)NNc1ccccc1,EC50,[4],19.6 µM (active)
same,EC50,[5],> 38 µM (not active)
CCN(/C=N/C1=NN(c2cccc(C(F)(F)F)c2)CC1)CC,IC50,[9],32.9 µM (active)
CC(C)CC(=O)NCc1ccc2[nH]c3c(c2c1)CCCC3,EC50,[4],> 160 µM (inactive)
same,EC50,[5],> 38 µM (not active)
COc1cc(/C=N/NC(=O)C(C)Nc2nnc(O)nc2O)ccc1O (stereo not given),IC50,[9],57.2 µM (active)
CCc1ccc(C(=O)NNc2ccc(F)cc2)cc1,EC50,[4],12.2 µM (active)
same,EC50,[5],> 38 µM (not active)
O=C(CNS(=O)(=O)c1ccccc1)N/N=C/c1ccc(O)cc1,IC50,[9],60 µM (active)
